This note sets out measurements from patent US10093699B2, “Peptides with antimicrobial, anticancer and/or wound-healing promoting activities, pharmaceutical compositions containing the same, and use of the peptides with antimicrobial, anticancer and/or wound-healing promoting activities” (priority 2015, dated 2018).

Where a SMILES comes first, the peptide text is derived from it. [ ]: non-standard residue; d: D form. 2Nal = N[C@@H](Cc1ccc2ccccc2c1)C(=O)O

Assay [1] relates to caspase 3 in PC9. In words: Western blot for activated caspase 3, PC9. Type of assay: cell-based, human. The following applies: 12 μM. The method, then:
PC9 cells were seeded in 10-cm polystyrene dishes for 48 hours. About seventy percent full of cells were treated with 12 μM K4R2Nal2S1 for 10 minutes, 1 hour or 24 hours. RPMI medium without peptide treated for 24 hours which was used as negative control.
Cells were collected by 200 μl RIPA and protease inhibitor blended buffer. After sonication and centrifugation for 10 minutes, 13000 rpm at 4° C., supernatants (lysis of cell) were collected. Protein concentrations of cell extracts were determined by Bradford reagent. Equal amount of boiled lysates (total 50 μg) were separated on 10% acrylamide gel. The gel was transferred to PVDF membrane in electro-blot system, 300 V, […], and 80 minutes.
The membrane was incubated in blocking buffer (5% skim milk, TBST buffer) for 1 hour at room temperature and washed in TBST buffer twice. Blocked membrane was incubated with Caspase-3 antibody (EPITOMICS, clone ID: E83-77) overnight at 4° C., washed for five times, and then incubated in secondary antibody (HRP, GeneTex catalogue number: GTX21311-01) for 1 hour at room temperature. The signals were visualized by enhanced chemiluminescence (ECL) and recorded by a detected system (ImageQuant LAS 4000 mini).

The subject of assay [2] is PC9 human lung cancer cells. The assay is classed as in vivo, male nude mice. On the procedure:
12 male nude mice (BALB/cAnN.Cg-Foxn1nu/CrlNarl) were purchased from National Laboratory Animal Center, Taiwan.
100 μl human lung cancer cell PC9 (3×10^6 cells) in Matrigel (Corning) was injected subcutaneously into the dorsal side of 5-week-old male nude mice. Each mouse was inoculated two sites on its back (Taguchi F, Koh Y, Koizumi F, Tamura T, Saijo N, et al. (2004) Anticancer effects of ZD6474, a VEGF receptor tyrosine kinase inhibitor, in gefitinib (“Iressa”)-sensitive and resistant xenograft models. Cancer Sci 95: 984-989.). 1 week 5 days after implantation (cancer size>95 mm^3), 12 mice were allocated randomly into two group. One group was received K4R2Nal2S1 (5 mg/Kg, dissolving in 100 μl PBS buffer) by tail vein injection three times a week, the other group was injected PBS as control.
Body weight and cancer size were measured three times a week. The cancer volume was calculated by formula of width^2×length×0.52. The cancer volume below 100% of the pretreatment volume was defined as “cancer reduction” (Taguchi F, Koh Y, Koizumi F, Tamura T, Saijo N, et al. (2004) Anticancer effects of ZD6474, a VEGF receptor tyrosine kinase inhibitor, in gefitinib (“Iressa”)-sensitive and resistant xenograft models. Cancer Sci 95: 984-989.). “Cancer reduction” was confirmed when the mice were dissected.
The mice were sacrificed after treatment of 40 days, the cancers were removed, photographed, and weighed. All animal experiments were performed in accordance with the animal guidelines of the National Tsing Hua University Institutional Animal Care and approved by Animal Care Committee.
Solid cancers were fixed in 4% formaldehyde buffer. Paraffin-embedded tissues were cut to 2 μm-thickness sections, and deparaffinized in ultraclear buffer (J.T. Baker) and graded ethanol. The morphology of cancers was obtained by Hematoxylin and eosin (H&E) stained sections. In addition, the sections were immunostained with anti-cleaved-PARP (1:100) antibody (Cell Signaling, clone number: D65E10).
Tissue images were captured using light microscope (Eclipse E400, Nikon) with digital microscopy camera (AxioCam ICc 5, ZEISS), at 40×, 200× and 400× fields.
To evaluate the anticancer effect of K4R2Nal2-S1 peptide in vivo, PC9 cells were implanted subcutaneously to nude mice (see FIG. 7A) and followed by K4R2-Nal2-S1 injection via the intravenous route, at a dose of 5 mg/kg, three times weekly (FIGS. 7B and 7C).
To examine the involvement of necrosis and apoptosis in K4R2Nal2-S1 peptide mediated anticancer effect, lung tumors generated in the xenograft mouse model were excised and analyzed by Hematoxylin and eosin (H&E) staining and immunohistochemistry for cleaved PARP, a marker for cell apoptosis.

Where [3] appears, read: 5 mg/kg i.v., three times weekly, harvested 40 days after injection.

Regarding `CC(=O)N[C@@H](CCCCN)C(=O)N[C@@H](CCCCN)C(=O)N[C@@H](CCCCN)C(=O)N[C@@H](CCCCN)C(=O)N[C@@H](CCCNC(=N)N)C(=O)N[C@@H](CCCNC(=N)N)C(=O)N[C@@H](Cc1ccc2ccccc2c1)C(=O)N[C@@H](Cc1ccc2ccccc2c1)C(=O)N[C@@H](CCCCN)C(=O)N[C@@H](CCCCN)C(=O)N[C@@H](Cc1c[nH]c2ccccc12)C(=O)N[C@@H](CCCNC(=N)N)C(=O)N[C@@H](CCCCN)C(=O)N[C@@H](Cc1c[nH]c2ccccc12)C(=O)N[C@@H](CC(C)C)C(=O)N[C@@H](C)C(=O)N[C@@H](CCCCN)C(=O)N[C@@H](CCCCN)C(N)=O` [K4R2-Nal2-S1, Ac-KKKKRR-Nal-Nal-KKWRKWLAKK-NH2] (Ac-KKKKRR[2Nal][2Nal]KKWRKWLAKK-NH2), in assay [1], the “caspase 3 activation (immunoblotting)” value is “activated caspase 3”. Besides, the tumor growth entry in assay [2] (5 mg/kg i.v., three times weekly) is reported as “significant inhibition”. Also, in assay [2] (setting [3]), the “volume of tumors harvested” value is recorded as “decreased” and the “weight of tumors harvested” value was “decreased”. Also, the “number of exposed tumors” value in assay [2] (46th day after implantation, 6 mice×2 side implantation, 12 in the PBS group) is 7. In assay [2] (excised xenograft tumors), the “necrosis in tumors (H&E staining)” value is given as “large scale of necrosis regions”. In assay [2] (excised xenograft tumors, next to the necrosis regions), the “cleaved PARP expression (immunohistochemistry)” value was “increased expression of cleaved PARP”.
